Results as given in patent US20250101383A1, “METHODS AND COMPOSITIONS FOR CARDIAC MODELS” (Sanford Burnham Prebys Medical Discovery Institute, priority 2023, published 2025).

What was measured:
[1] = test system: hiPSC-ACMs (atrial-like cardiomyocytes); assay: Arrhythmia assay and drug treatment in ACMs (arrhythmia index, AI); type: cell-based, human; conditions: for percentage of cells with AI values >20: control 4%
Description: To test the platform's ability to identify APD modulators, ACMs of the present disclosure were infused with isoproterenol, a non-selective β-adrenergic agonist, known to both shorten APD and increase beat rate in hiPSC-CMs. […] Consistent with median APD75 values, escalating doses of isoproterenol (1 and 9 μM) led to an increase of APD75 KS-D value to ˜0.4 and 0.7 respectively, as compared to control (FIG. 5C). Similarly, to quantify cellular manifestations of arrhythmia, an arrhythmia index (AI) was developed that quantifies beat-to-beat interval irregularities as a metric for arrhythmically beating cells (FIG. 9). In this context, AP trains with AI values lower than 20 were determined to describe regular beating patterns, while AP train with AI values >20 mark were determined to describe irregular beating patterns (FIGS. 10A-E). Finally, to benchmark the platform for arrhythmia-associated phenotypes, the role of dofetilide, a class III anti-arrhythmic that selectively blocks the rapid component of the delayed rectifier outward potassium, was tested.
24 hours post-transfection, 2,000 primary human fibroblasts were added per well to the hiPSC-ACMs. 48 hours later (the day of the imaging), cells were dyed with the voltage sensitive dye Vf2.1 Cl as described above, then treated with 50 μL of 2× solution of isoproterenol (1 μM final) diluted in Tyrode alone and in combination with 2× solution of Verapamil (30 nM final), diluted in Tyrode at the 5th wash. After 20 minutes of compound incubation time, cells were imaged, and single-cell traces analyzed as described previously.

[2] = test system: hiPSC-ACMs (atrial-like cardiomyocytes); assay: Voltage assay in ACMs (single-cell APD); type: cell-based, human; conditions: for median APD75: untreated 121.3 ms
Source text: Next, to facilitate the characterization of AF-associated arrhythmia phenotypes in ACMs, an imaging platform was developed that automatically tracks and quantifies action potential (AP) and rhythm parameters in HT with single cell resolution (FIGS. 4A-D). To retrieve AP and rhythm parameters, ACMs of the present disclosure were co-labeled with a voltage dye (VF2.1Cl) and a nuclear dye (Hoechst 33258) (McKeithan et al., 2017). For each condition, one image of the Hoechst dye was collected followed by a 5-second acquisition of the voltage dye channel at 100 Hz. Next, using a custom algorithm developed on the ImageXpress®, each cell in the field of view was segmented using the Hoechst topological information and each cell mask was propagated to the “voltage dye channel”, thereby enabling the quantification of voltage-dependent fluorescence variation over time with single-cell resolution. To retrieve the electrophysiological parameters, a cloud-based trace analysis application was developed that automatically processes each AP trace and retrieves median and standard deviation values, for APD-10, 25, 50, 75, 90; T25-75, T75-25; Vmax up and down; beat rate; peak-to-peak interval; and rhythm regularity index; for each cell. This platform enabled the automatic recording, quantification, and analysis of AP and rhythm parameters in less than 2 minutes per condition.
Voltage assay was performed using the labeling protocol described herein. Briefly, hiPSC-ACMs at day 25 of differentiation were dissociated with TrypLE Select 10× for up to 10 min and the action of TrypLE was neutralized with RPMI supplemented with 10% FBS. Cells were resuspended in RPMI with 2% KOSR (Gibco) and 2% B27 50× with vitamin A (Life Technologies) supplemented with 2 μM Thiazovivin and plated at a density of 6,000 cells per well in a Matrigel-coated 384-well plate. hiPSC-ACMs were then transfected with siRNAs directed against AFib-associated genes (ON-TARGETplus Human, siGATA4: J-008244-05-0002, siGATA5: J-010324-06-0005, siGATA6: J-008351-06-0005, siGJA1: J-011042-05-0002, siGJA5: J-017368-05-0002, siHAND2: J-008698-06-0005, siHCN4: J-006203-05-0002, siKCNA5: J-006215-06-0005, siKCND3: L-006226-00-0005, siKCNJ5: J-006250-06-0002, siKCNN3: J-006270-06-0002, siNKX2-5: J-019795-07-0002, siNKX2-6: J-025793-17-0002, siNPPA: J-012729-05-0002, siPITX2: J-017315-05-0005, siPLN: J-011754-05-0005, siSH3PXD2A: J-006657-07-0002, siSYNE2: J-019259-09-0002, siTBX5: J-013410-5-0002, siZFHX3: J-015410-5-0002) using lipofectamine RNAi Max (ThermoFisher). […] Fluorescence over time quantification and trace analysis were quantified using custom software packages. […]

[3] = test system: Drosophila heart; assay: Octopamine-challenge heart assay; type: in vivo; conditions: for mean nMAD (arrhythmia) post-octopamine pacing: 100 nM OA
Source text: Cardiac phenotypes of middle-aged (3-weeks old) female flies from each cross were characterized using denervated, semi-intact preparations as previously described in (Ocorr et al., 2009; Vogler and Ocorr, 2009). Briefly, hearts from 20-25 flies were examined for each genotype and age. Adult female flies were exposed to FlyNap, a triethylamine-based anesthetic, for at least one minute until no movement was detected. Hearts were exposed by dissection in room temperature, air bubbled, artificial hemolymph (AHL, Ocorr et al, 2007). High-speed video recordings were filmed with a Hamamatsu EM-CCD camera and using HC Image capture software (Hamamatsu Corp). Heart movements were analyzed using the Semi-automated Optical Heartbeat Analysis (SOHA) software (sohasoftware.com). Movies were recorded at speeds of 140+ fps with pixel resolution ˜ 1 micron/pixel allowing very precise temporal and spatial measurements, including heart period (HP) and rate (1/HP), diastolic and systolic intervals, and fractional shortening/contractility. To quantitate arrhythmia, median absolute deviation (MAD) was first calculated. The median value of the absolute deviations of each heart period (Xi) from the median heart period ((X)) was calculated and then multiplied by a constant (k=1.4826 assuming data is normally distributed).
To normalize the MAD index (nMAD), the MAD value was divided by the median heart period. Qualitative records of heart wall movements (M-modes/kymographs) were produced by electronically excising a 1 pixel horizontal “slice” from each movie frame and aligning them horizontally providing an edge trace displaying heart wall movements in the X-axis over time along the Y-axis (Ocorr et al., 2009; Ocorr et al., 2007c).
Octopamine (OA) pacing experiments were performed in situ on the semi-intact fly preparation. OA (Sigma-Aldrich #00250) stock solution (10 mM) was freshly prepared by dissolving in water and was further diluted in AHL. A dose-response curve was generated using doses ranging from 0.1 nM OA to 500 nM OA (Supplemental FIG. 5A). The increase in heart rate was maximal at 100 nM OA, which was the dose used for all subsequent pacing experiments (Supplemental FIG. 5B). Following dissection, hearts were first allowed to equilibrate in fresh AHL for 15 min and 30 sec movies of heart function were recorded. Heart function was recorded three times per fly: 1) pre-drug exposure, 2) after a 15-minute exposure to 100 nM OA, and 3) after a 15-minute post drug exposure recovery period. A second set of hearts exposed only to vehicle (AHL) were filmed at the same three 15-minute intervals to serve as time controls.

[4] = test system: Id1-induced CPs; assay: Generation of atrial-like cardiomyocytes from Id1-induced cardiac progenitors; type: cell-based, human; conditions: retinoic acid 300 nM single dose, day 12
Description: To study the molecular basis of chamber-specific electrical disorders such as atrial fibrillation, Id1-overexpressing cardiac progenitors (CPs) were used to generate ACMs (Cunningham et al., 2017, and Yu et al., 2018). Treatment of Id1-induced CPs with a single dose of retinoic acid (300 nM) efficiently promoted the generation of atrial-like, NR2F2+ beating CMs (˜80% were NR2F2+, ACTN2+) (FIG. 1 and FIGS. 2A-B). Consistent with an atrial-like identity, induced ACMs also expressed atria-enriched (Devalla et al., 2015; Uhlen et al., 2015) transcription factors (NR2F2, TBX5, ZNF385B), ion channel genes KCNA5 (encoding Kv1.5) and KCNJ3 (encoding Kir 3.1), ligands (NPPA, NPPB) and receptors (EGR1/2, PDGFRA), at both day 12 and at day 25 of differentiation (FIG. 2C and FIGS. 6A-B).
ACMs for the study were developed by dissociating Id1 overexpressing hiPSCsl with 0.5 mM EDTA (ThermoFisher Scientific) in PBS without CaCl2 and MgCl2 (Corning) for 7 min at room temperature. hiPSC were resuspended in mTeSR-1 media (StemCell Technologies) supplemented with 2 μM Thiazovivin (StemCell Technologies) and plated in a Matrigel-coated 12-well plate at a density of 3×10^5 cells per well. […]

[5] = acute OA exposure, control and KD lines

CN(CCOc1ccc(NS(C)(=O)=O)cc1)CCc1ccc(NS(C)(=O)=O)cc1 [dofetilide]
proportion of arrhythmic cells (AI>20) ([1]; dofetilide 33 nM, control 4.0%): 3.9%
KS-D value of AI distribution vs control ([1]; dofetilide 100 nM): 0.7
percentage of cells with AI values >20 ([1]; dofetilide 100 nM): 67%
percentage of cells with AI values >20 ([1]; dofetilide 100 nM, listed as Dofetilide): 67.0%
AI as compared to control ([1]; low dose of dofetilide (33 nM)): reduced AI

CC(C)NCC(O)c1ccc(O)c(O)c1 (stereo not shown) [isoproterenol]
APD75 KS-D value as compared to control ([2]; isoproterenol 1 μM): ~0.4
median APD75 ([2]; isoproterenol 1 μM): 108.6 ms
APD75 KS-D value as compared to control ([2]; isoproterenol 9 μM): 0.7
median APD75 ([2]; isoproterenol 9 μM): 91.2 ms
percentage of arrhythmic cells ([1]; isoproterenol alone): did not increase

NCC(O)c1ccc(O)cc1 (stereo not shown) [octopamine]
mean nMAD (arrhythmia) post-octopamine pacing ([3]; PLN/SclA KD hearts): 0.1342
mean nMAD (arrhythmia) post-octopamine pacing ([3]; control hearts): 0.0379
heart rate [3, 5]: significantly elevated heart rate
systolic intervals [3, 5]: significantly shortening systolic intervals
dose of maximal effect on heart rate ([3]; doses 0.1 nM to 500 nM OA): 100 nM
contraction and relaxation intervals ([3]; in the presence of OA): significantly shortened

CC1=C(/C=C/C(C)=C/C=C/C(C)=C/C(=O)O)C(C)(C)CCC1 [retinoic acid]
NR2F2+, ACTN2+ cells [4]: ~80%

COc1ccc(CCN(C)CCCC(C#N)(c2ccc(OC)c(OC)c2)C(C)C)cc1OC (stereo not shown) [verapamil]
fold less arrhythmic than DMSO control ([1]; verapamil 30 nM, PLN KD+Fib+isoproterenol): 1.7 fold
percentage of arrhythmic cells ([1]; verapamil 30 nM, PLN KD+Fib+isoproterenol, DMSO control 31.2%): 18%
